The results in this text go back to patent US20080064689A1, “3-[4-(6-Pyridin-3-Yl)-3-Phenyl] -5-(1H-1,2,3-Triazol-1-Ylmethyl)-1,3-Oxazolidin-2-Ones as Antibacterial Agents” (AstraZeneca AB, priority 2004, published 2008).

Structures can show the parent of a compound that is named as a salt.

One may read the melting point as the temperature of the solid-liquid transition. For `O=C1O[C@@H](Cn2ccnn2)CN1c1ccc(-c2ccc(C3=NO[C@H](CN4CCS(=O)(=O)CC4)C3)nc2)c(F)c1` [Example 9, (5R)-3-[4-(6-{(5S)-5-[(1,1-Dioxidothiomorpholin-4-yl)methyl]-4,5-dihydroisoxazol-3-yl}pyridin-3-yl)-3-fluorophenyl]-5-(1H-1,2,3-triazol-1-ylmethyl)-1,3-oxazolidin-2-one], the melting point was 200 to 203 °C.
The value for `CC(C)[C@@H](N)C(=O)NC[C@@H]1CC(c2ccc(-c3ccc(N4C[C@H](Cn5ccnn5)OC4=O)cc3F)cn2)=NO1` (as salt: hydrochloride) [Example 21, N^1-{[(5S)-3-(5-{2-Fluoro-4-[(5R)-2-oxo-5-(1H-1,2,3-triazol-1-ylmethyl)-1,3-oxazolidin-3-yl]phenyl}pyridin-2-yl)-4,5-dihydroisoxazol-5-yl]methyl}-D-valinamide hydrochloride] was 130 to 134 °C.
Next, `CN(CCO)C[C@@H]1CC(c2ccc(-c3ccc(N4C[C@H](Cn5ccnn5)OC4=O)cc3F)cn2)=NO1` [Example 10, (5R)-3-[3-Fluoro-4-[6-((5S)-5-{[(2-hydroxyethyl)(methyl)amino]methyl]-4,5-dihydroisoxazol-3-yl)pyridin-3-yl]phenyl}-5-(1H-1,2,3-triazol-1-ylmethyl)-1,3-oxazolidin-2-one]: 153 to 156 °C; `CN(C)C[C@@H]1CC(c2ccc(-c3ccc(N4C[C@H](Cn5ccnn5)OC4=O)cc3F)cn2)=NO1` [Example 1, (5R)-3-[4-(6-{(5S)-5-[(Dimethylamino)methyl]-4,5-dihydroisoxazol-3-yl}pyridin-3-yl)-3-fluorophenyl]-5-(1H-1,2,3-triazol-1-ylmethyl)-1,3-oxazolidin-2-one]: 212 °C.
The value for `CCCCNC[C@@H]1CC(c2ccc(-c3ccc(N4C[C@H](Cn5ccnn5)OC4=O)cc3F)cn2)=NO1` [Example 6, (5R)-3-[4-(6-{(5S)-5-[(Butylamino)methyl]-4,5-dihydroisoxazol-3-yl}pyridin-3-yl)-3-fluorophenyl]-5-(1H-1,2,3-triazol-1-ylmethyl)-1,3-oxazolidin-2-one] was 230 °C.
The compound `O=C1O[C@@H](Cn2ccnn2)CN1c1ccc(-c2ccc(C3=NO[C@H](CN4CC[S+]([O-])CC4)C3)nc2)c(F)c1` [Example 8, (5R)-3-[3-Fluoro-4-(6-{(5S)-5-[(1-oxidothiomorpholin-4-yl)methyl]-4,5-dihydroisoxazol-3-yl}pyridin-3-yl)phenyl]-5-(1H-1,2,3-triazol-1-ylmethyl)-1,3-oxazolidin-2-one] had a melting point of 218 to 220 °C.
The value for `CN(CC(=O)O)CC(=O)N(C)C[C@@H]1CC(c2ccc(-c3ccc(N4C[C@H](Cn5ccnn5)OC4=O)cc3F)cn2)=NO1` [Example 24, N-{2-[{[(5S)-3-(5-{2-Fluoro-4-[(5R)-2-oxo-5-(1H-1,2,3-triazol-1-ylmethyl)-1,3-oxazolidin-3-yl]phenyl}pyridin-2-yl)-4,5-dihydroisoxazol-5-yl]methyl}(methyl)amino]-2-oxoethyl}-N-methylglycine] was 135 to 145 °C.
Next, `O=C1O[C@@H](Cn2ccnn2)CN1c1ccc(-c2ccc(C3=NO[C@H](CN4CCCC4)C3)nc2)c(F)c1` (as salt: hydrochloride) [Example 12]: 260 to 263 °C.
As to `CC(C)(C)OC(=O)NC[C@@H]1CC(c2ccc(-c3ccc(N4C[C@H](Cn5ccnn5)OC4=O)cc3F)cn2)=NO1` [Example 15, tert-Butyl {[(5S)-3-(5-{2-fluoro-4-[(5R)-2-oxo-5-(1H-1,2,3-triazol-1-ylmethyl)-1,3-oxazolidin-3-yl]phenyl}pyridin-2-yl)-4,5-dihydroisoxazol-5-yl]methyl}carbamate], the melting point was in the range of 228 to 230 °C.
On to `O=C1O[C@@H](Cn2ccnn2)CN1c1ccc(-c2ccc(C3=NO[C@H](Cn4ccnc4)C3)nc2)c(F)c1` [Example 26, (5R)-3-(3-Fluoro-4-{6-[(5S)-5-(1H-imidazol-1-ylmethyl)-4,5-dihydroisoxazol-3-yl]pyridin-3-yl}phenyl)-5-(1H-1,2,3-triazol-1-ylmethyl)-1,3-oxazolidin-2-one], for which the melting point lay within 239 to 242 °C.
`N[C@@H](CC(=O)O)C(=O)NC[C@@H]1CC(c2ccc(-c3ccc(N4C[C@H](Cn5ccnn5)OC4=O)cc3F)cn2)=NO1` [Example 28, N^1-{[(5S)-3-(5-{2-Fluoro-4-[(5R)-2-oxo-5-(1H-1,2,3-triazol-1-ylmethyl)-1,3-oxazolidin-3-yl]phenyl}pyridin-2-yl)-4,5-dihydroisoxazol-5-yl]methyl}-L-α-asparagine] came in with a melting point of 224 to 226 °C.
The value for `C[C@H](N)C(=O)NC[C@@H]1CC(c2ccc(-c3ccc(N4C[C@H](Cn5ccnn5)OC4=O)cc3F)cn2)=NO1` (as salt: hydrochloride) [Example 22, N^1-{[(5S)-3-(5-{2-fluoro-4-[(5R)-2-oxo-5-(1H-1,2,3-triazol-1-ylmethyl)-1,3-oxazolidin-3-yl]phenyl}pyridin-2-yl)-4,5-dihydroisoxazol-5-yl]methyl}-L-alaninamide hydrochloride] was 242 to 244 °C; that for `CN(C)CC(=O)N(C)C[C@@H]1CC(c2ccc(-c3ccc(N4C[C@H](Cn5ccnn5)OC4=O)cc3F)cn2)=NO1` (as salt: hydrochloride) [Example 23, N^1-{[(5S)-3-(5-{2-fluoro-4-[(5R)-2-oxo-5-(1H-1,2,3-triazol-1-ylmethyl)-1,3-oxazolidin-3-yl]phenyl}pyridin-2-yl)-4,5-dihydroisoxazol-5-yl]methyl}-N^1,N^2,N^2-trimethylglycinamide] was 122 to 132 °C.
In turn, `CN(CC(=O)O)C[C@@H]1CC(c2ccc(-c3ccc(N4C[C@H](Cn5ccnn5)OC4=O)cc3F)cn2)=NO1` [Example 19, N-{[(5S)-3-(5-{2-Fluoro-4-[(5R)-2-oxo-5-(1H-1,2,3-triazol-1-ylmethyl)-1,3-oxazolidin-3-yl]phenyl}pyridin-2-yl)-4,5-dihydroisoxazol-5-yl]methyl}-N-methylglycine] yielded a melting point of 212 to 218 °C.
The value for `Br.O=C1O[C@@H](Cn2ccnn2)CN1c1ccc(-c2ccc(C3=NO[C@H](CN4CCOCC4)C3)nc2)c(F)c1` [Example 3b] was > 280 °C (dec.); that for `O=C1O[C@@H](Cn2ccnn2)CN1c1ccc(-c2ccc(C3=NO[C@H](CN4CCOCC4)C3)nc2)c(F)c1` (as salt: sulfonic acid salt) [Example 3c, (5R)-3-(3-Fluoro-4-{6-[(5S)-5-(morpholin-4-ylmethyl)-4,5-dihydroisoxazol-3-yl]pyridin-3-yl}phenyl)-5-(1H-1,2,3-triazol-1-ylmethyl)-1,3-oxazolidin-2-one, methanesulfonic acid salt] was 165 to 168 °C.
`O=C1O[C@@H](Cn2ccnn2)CN1c1ccc(-c2ccc(C3=NO[C@H](CN4CCCCC4)C3)nc2)c(F)c1` (as salt: hydrochloride) [Example 13, (5R)-3-(3-Fluoro-4-{6-[(5S)-5-(piperidin-1-ylmethyl)-4,5-dihydroisoxazol-3-yl]pyridin-3-yl}phenyl)-5-(1H-1,2,3-triazol-1-ylmethyl)-1,3-oxazolidin-2-one] gave a melting point of 211 to 215 °C.
Next, `O=C1O[C@@H](Cn2ccnn2)CN1c1ccc(-c2ccc(C3=NO[C@H](CN4CC=CCC4)C3)nc2)c(F)c1` (as salt: hydrochloride) [Example 14, (5R)-3-(4-{6-[(5S)-5-(3,6-Dihydropyridin-1(2H)-ylmethyl)-4,5-dihydroisoxazol-3-yl]pyridin-3-yl}-3-fluorophenyl)-5-(1H-1,2,3-triazol-1-ylmethyl)-1,3-oxazolidin-2-one]: 250 to 255 °C; `Cl.O=C1O[C@@H](Cn2ccnn2)CN1c1ccc(-c2ccc(C3=NO[C@@H](CN4CCOCC4)C3)nc2)c(F)c1`: 239 to 245 °C.
Next, `O=C1O[C@@H](Cn2ccnn2)CN1c1ccc(-c2ccc(C3=NO[C@H](CNCCO)C3)nc2)c(F)c1` [Example 5, (5R)-3-{3-Fluoro-4-[6-((5S)-5-{[(2-hydroxyethyl)amino]methyl}-4,5-dihydroisoxazol-3-yl)pyridin-3-yl]phenyl}-5-(1H-1,2,3-triazol-1-ylmethyl)-1,3-oxazolidin-2-one]: 190 °C; `CN(C)CC(=O)NC[C@@H]1CC(c2ccc(-c3ccc(N4C[C@H](Cn5ccnn5)OC4=O)cc3F)cn2)=NO1` (as salt: hydrochloride) [Example 17, N^1-{[(5S)-3-(5-{2-Fluoro-4-[(5R)-2-oxo-5-(1H-1,2,3-triazol-1-ylmethyl)-1,3-oxazolidin-3-yl]phenyl}pyridin-2-yl)-4,5-dihydroisoxazol-5-yl]methyl}-N^2,N^2-dimethylglycinamide hydrochloride]: 202 to 204 °C; `CNC[C@@H]1CC(c2ccc(-c3ccc(N4C[C@H](Cn5ccnn5)OC4=O)cc3F)cn2)=NO1` [Example 2]: 215 °C.
The value for `O=C1O[C@@H](Cn2ccnn2)CN1c1ccc(-c2ccc(C3=NO[C@@H](CN4CCOCC4)C3)nc2)c(F)c1` [Example 11, (5R)-3-(3-Fluoro-4-{6-[(5R)-5-(morpholin-4-ylmethyl)-4,5-dihydroisoxazol-3-yl]pyridin-3-yl}phenyl)-5-(1H-1,2,3-triazol-1-ylmethyl)-1,3-oxazolidin-2-one] was 239 to 245 °C; that for `O=C(O)CNCC(=O)NC[C@@H]1CC(c2ccc(-c3ccc(N4C[C@H](Cn5ccnn5)OC4=O)cc3F)cn2)=NO1` [Example 25, N-[2-({[(5S)-3-(5-{2-Fluoro-4-[(5R)-2-oxo-5-(1H-1,2,3-triazol-1-ylmethyl)-1,3-oxazolidin-3-yl]phenyl}pyridin-2-yl)-4,5-dihydroisoxazol-5-yl]methyl}amino)-2-oxoethyl]glycine] was 200 to 210 °C; that for `CN(CC(=O)OC(C)(C)C)C[C@@H]1CC(c2ccc(-c3ccc(N4C[C@H](Cn5ccnn5)OC4=O)cc3F)cn2)=NO1` [Example 18, tert-Butyl N-{[(5S)-3-(5-{2-fluoro-4-[(5R)-2-oxo-5-(1H-1,2,3-triazol-1-ylmethyl)-1,3-oxazolidin-3-yl]phenyl}pyridin-2-yl)-4,5-dihydroisoxazol-5-yl]methyl}-N-methylglycinate] was 180 °C.
